# Experimental data published in patent US20230219890A1, “BICYCLIC COMPOUNDS AND USE THEREOF” (Betta Pharmaceuticals Co.,Ltd, priority 2020, published 2023).
# What was measured:
# [1] = test system: HIF2α reporter cells (786-O-HIF2α-Luc cells); experiment: Luciferase Assay (HIF2α reporter cells); type: cell-based; conditions: 18-20 h, Steady-Glo luminescence
# Procedure: Luciferase LUC gene was transfected into 786-O cells (purchased from ATCC) using Lipofectamine 3000 Transfection Reagent (purchased from Invitrogen) to construct HIF2α reporter cells (786-O-HIF2α-Luc cells). Experiments were performed when 786-O-HIF2α-Luc cells were in logarithmic growth phase, culture medium (RPMI MEDIUM 1640, purchased from Invitrogen) was abandoned, the cells were rinsed with PBS three times; trypsin (TrypLE, purchased from invitrogen) was added to digest cells, the digestion was terminated by washing the cells with culture medium, 10% fetal bovine serum, 1% penicillin and streptomycin. The cells were collected by centrifugation, rinsed twice with PBS to remove the phenol red in the medium, and then resuspended the cells to an appropriate concentration, and detected the cell density and viability, and made sure the cell viability is above 90% before it can be used for experiments.
# The gradient concentration compound was transferred into 384-well plate, 25 nl/well using Echo 550 (non-contact sonic pipetting system, purchased from Labcyte); the cells were seeded in 384-well plate, 4500 cells/well, with 25 μl of culture medium, to make the final concentrations as follows: 10000, 3333, 1111, 370, 123, 41.1, 13.7, 4.6, 1.5, 0.5 nM. Cells were incubated at 37° C., 5% CO2 for 18-20 h; Steady-Glo™ Luciferase Assay System (purchased from Promega) was added to 384 well-plate, 25 μl/well; the luminescence value was detected with Envision. The % inhibition rate was calculated according to the RLU (Record Luminescence) signal value of each well, and then the IC50 of the corresponding compound was calculated by Graphpad 8.0.
# VEGFA (786-O cells) = experiment: VEGFA ELISA Assay (IC50); type: cell-based; conditions: VEGFA in culture supernatant by ELISA
# Procedure: 786-O cells in exponential growth phase were seeded in 96-well plate, the cell concentration was 65,000 cells per milliliter of culture medium, 180 ul per well. Compounds were serial diluted to the indicated concentration, and 20 ul compound solutions of different concentrations were added to the corresponding cell wells. The final compound concentrations were as follows (nM): 1.5, 4.6, 13.7, 41.2, 123.5, 370.4, 1111.1, 3333.3, 10000. After 24 hours of incubation, the cell culture supernatant was taken, and the VEGFA concentration was determined using an ELISA kit (purchased from abcam). Finally, the reaction was terminated, and the light absorbance value of each well was measured using a microplate reader at a wavelength of […], and IC50 was calculated by GraphPad Prism. Cell Titer-Glo reagent was used to measure cell viability.
# [2] = Homo sapiens, 786-0, 24 h, 24 hours incubation, class symbols
# [3] = Homo sapiens, 786-0, 24 h, 24 hours incubation, numeric values
IC50 ([1]; numeric values) [nM],IC50 (VEGFA (786-O cells); [2]) [nM],IC50 ([1]; class symbols) [nM],IC50 (VEGFA (786-O cells); [3]) [nM],Compound,other results
69.9,≤ 500,–,–,"N#Cc1ccc(-n2cc(C(F)(F)F)c3c2CCC(F)(F)[C@H]3O)cc1C#N [Example 167, (S)-4-(5,5-difluoro-4-hydroxy-3-(trifluoromethyl)-4,5,6,7-tetrahydro-1H-indol-1-yl)phthalonitrile]",–
–,≤ 500,≤ 500,–,"OC1c2c(C(F)(F)F)c(F)n(-c3cc(F)cc(Cl)c3)c2CCC1(F)F (stereo not drawn) [Example 106, 1-(3-chloro-5-fluorophenyl)-2,5,5-trifluoro-3-(trifluoromethyl)-4,5,6,7-tetrahydro-1H-indol-4-ol]",–
–,≤ 500,≤ 500,–,"N#Cc1cccc(-n2cc(C(F)(F)F)c3c2CCC(F)(F)C3O)c1 (stereo not drawn) [Example 19, 3-(5,5-difluoro-4-hydroxy-3-(trifluoromethyl)-4,5,6,7-tetrahydro-1H-indol-1-yl)benzonitrile]",–
22,–,–,6.2,"O[C@H]1c2c(C(F)(F)F)cn(-c3ccc(F)c(C(F)F)c3)c2CC[C@H]1F (single isomer, unassigned) [Example 104]",–
15.9,–,–,17.8,"O[C@H]1c2c(C(F)(F)F)cn(-c3ccc(F)c(C(F)F)c3)c2CCC1(F)F [Example 173, (S)-1-(3-(difluoromethyl)-4-fluorophenyl)-5,5-difluoro-3-(trifluoromethyl)-4,5,6,7-tetrahydro-1H-indol-4-ol]",–
98.5,–,–,31,N#Cc1cc(-n2cc(C(F)(F)F)c3c2CCC(F)(F)C3O)ccc1F (stereo not drawn) [Example 121],–
–,≤ 500,≤ 500,–,OC1c2c(C(F)(F)F)cn(-c3cc(F)c(F)c(F)c3)c2CCC1(F)F (stereo not drawn) [Example 148],–
30.5,–,–,8.4,"OC1c2c(C(F)(F)F)cn(-c3ccc(F)c(C(F)F)c3)c2CCC1(F)F (stereo not drawn) [Example 168, 1-(3-(difluoromethyl)-4-fluorophenyl)-5,5-difluoro-3-(trifluoromethyl)-4,5,6,7-tetrahydro-1H-indol-4-ol]",–
33.5,–,–,5.6,"[2H][C@]1(O)c2c(C(F)(F)F)cn(-c3ccc(F)c(C#N)c3)c2CCC1(F)F [Example 200, (S)-5-(5,5-difluoro-4-hydroxyl-3-(trifluoromethyl)-4,5,6,7-tetrahydro-1H-indol-1-yl-4-d)-2-fluorobenzonitrile]",–
53.2,–,–,27.7,"O[C@H]1c2c(C(F)(F)F)cn(-c3cc(F)cc(Cl)c3)c2CCC1(F)F [Example 116, (S)-1-(3-chloro-5-fluorophenyl)-5,5-difluoro-3-(trifluoromethyl)-4,5,6,7-tetrahydro-1H-indol-4-ol]",–
–,≤ 500,–,–,"CC1(O)c2c(C(F)(F)F)cn(-c3ccc(F)c(C#N)c3)c2CCC1(F)F (stereo not drawn) [Example 100, 5-(5,5-difluoro-4-hydroxyl-4-methyl-3-(trifluoromethyl)-4,5,6,7-tetrahydro-1H-indol-1-yl)-2-fluorobenzonitrile]",–
–,1500 to 10000,–,–,OC1c2c(-c3ccccc3)cn(-c3cc(F)cc(Cl)c3)c2CCC1(F)F (stereo not drawn) [Example 145],–
–,≤ 500,–,–,"OC1c2c(C(F)(F)F)cc(-c3cc(F)cc(Cl)c3)n2CCC1F (stereo not drawn) [Example 68, 3-(3-chloro-5-fluorophenyl)-7-fluoro-1-(trifluoromethyl)-5,6,7,8-tetrahydroindolizin-8-ol]",–

# More lines, now with the values behind:
Compound,IC50 ([1]; numeric values) [nM],IC50 (VEGFA (786-O cells); [2]) [nM],IC50 ([1]; class symbols) [nM],IC50 (VEGFA (786-O cells); [3]) [nM],other results
"OC1c2c(C(F)(F)F)cn(-c3cccc(Cl)c3)c2CCC1(F)F (stereo not drawn) [Example 15, l-(3-chlorophenyl)-5,5-difluoro-3-(trifluoromethyl)-4,5,6,7-tetrahydro-1H-indol-4-ol]",–,–,≤ 500,18.8,–
"N#Cc1cc(-n2cc(C(F)(F)F)c3c2CCC(F)[C@H]3O)ccc1F (stereo partly drawn) [Example 131, 2-fluoro-5-((4S)-5-fluoro-4-hydroxy-3-(trifluoromethyl)-4,5,6,7-tetrahydro-1H-indol-1-yl)benzonitrile]",–,≤ 500,≤ 500,–,–
"OC1c2c(C(F)(F)F)cn(-c3cc(F)cc(Cl)c3)c2CCC1(F)F (stereo not drawn) [Example 7, 1-(3-chloro-5-fluorophenyl)-5,5-difluoro-3-(trifluoromethyl)-4,5,6,7-tetrahydro-1H-indol-4-ol]",57.7,–,–,30.7,–
"N#Cc1ccc(-n2cc(C(F)(F)F)c3c2CCC(F)(F)C3O)cc1Cl (stereo not drawn) [Example 124, 2-chloro-4-(5,5-difluoro-4-hydroxy-3-(trifluoromethyl)-4,5,6,7-tetrahydro-1H-indol-1-yl)benzonitrile]",–,–,≤ 500,–,"IC50 (VEGFA (786-O cells); Homo sapiens, 786-0, 24 hours incubation, numeric values): 8.5 nM"
"N#Cc1cc(-n2cc(C(F)(F)F)c3c2CCC(F)(F)[C@H]3F)ccc1F (single isomer, unassigned) [Example 196]",–,≤ 500,≤ 500,–,–
"N#Cc1ccc(-n2cc(C(F)(F)F)c3c2CCC(F)(F)C3O)cc1C#N (stereo not drawn) [Example 125, 4-(5,5-difluoro-4-hydroxy-3-(trifluoromethyl)-4,5,6,7-tetrahydro-1H-indol-1-yl)phthalonitrile]",–,–,≤ 500,34,–
"N#Cc1cc(-c2cc(C(F)(F)F)c3n2CCC(F)(F)[C@H]3O)ccc1F [Example 70, (S)-5-(7,7-difluoro-8-hydroxyl-1-(trifluoromethyl)-5,6,7,8-tetrahydroindolizin-3-yl)-2-fluorobenzonitrile]",84.2,–,–,45.4,–
"OC1c2c(C(F)(F)F)cn(-c3ccc(F)c(C(F)(F)F)c3)c2CCC1(F)F (stereo not drawn) [Example 156, 5,5-difluoro-1-(4-fluoro-3-(trifluoromethyl)phenyl)-3-(trifluoromethy)-4,5,6,7-tetrahydro-1H-indol-4-ol]",70.5,–,–,15.6,–
"N#Cc1cc(-c2cc(C(F)(F)F)c3n2CCC(F)C3O)ccc1F (stereo not drawn) [Example 75, 2-fluoro-5-(7-fluoro-8-hydroxy-1-(trifluoromethyl)-5,6,7,8-tetrahydroindolizin-3-yl)benzonitrile]",–,≤ 500,≤ 500,–,–
"OC1c2c(C(F)(F)F)cn(-c3ccc(F)c(Cl)c3)c2CCC1(F)F (stereo not drawn) [Example 120, 1-(3-chloro-4-fluorophenyl)-5,5-difluoro-3-(trifluoromethyl)-4,5,6,7-tetrahydro-1H-indol-4-ol]",75.7,–,–,38.9,–
"N#Cc1cc(-c2cc(C(F)(F)F)c3n2CCC(F)(F)C3O)ccc1F (stereo not drawn) [Example 69, 5-(7,7-difluoro-8-hydroxyl-1-(trifluoromethyl)-5,6,7,8-tetrahydroindolizin-3-yl)-2-fluorobenzonitrile]",67,–,–,44.2,–
"(4S,5S)-1-(3-(difluoromethyl)-4-fluorophenyl)-5-fluoro-3-(trifluoromethyl)-4,5,6,7-tetrahydro-1H-indol-4-ol and (4R,5R)-1-(3-(difluoromethyl)-4-fluorophenyl)-5-fluoro-3-(trifluoromethyl)-4,5,6,7-tetrahydro-1H-indol-4-ol [Example 103]",–,–,≤ 500,–,"IC50 (VEGFA (786-O cells); 24 hours incubation, numeric values): 44.1 nM"
"O[C@H]1c2c(-c3cccs3)cn(-c3cc(F)cc(Cl)c3)c2CCC1(F)F [Example 48, (S)-1-(3-chloro-5-fluorophenyl)-5,5-difluoro-3-(thiophen-2-yl)-4,5,6,7-tetrahydro-1H-indol-4-ol]",–,–,≤ 500,45.6,–
"OC1CCCc2c1c(C(F)(F)F)cn2-c1cc(F)cc(F)c1 (stereo not drawn) [Example 37, 1-(3,5-difluorophenyl)-3-(trifluoromethyl)-4,5,6,7-tetrahydro-1H-indol-4-ol]",–,≤ 500,≤ 500,–,–
"O[C@H]1c2c(C(F)(F)F)c(Cl)n(-c3ccc(F)c(Cl)c3)c2CCC1(F)F [Example 107, (S)-2-chloro-1-(3-chloro-54-fluorophenyl)-5,5-difluoro-3-(trifluoromethyl)-4,5,6,7-tetrahydro-1H-indol-4-ol]",–,–,–,–,"IC50 (VEGFA (786-O cells); 24 hours incubation, class symbols): ≤ 500 nM"
"OC1CCCc2c1c(C(F)(F)F)cn2-c1ccc(F)c(C(F)F)c1 (stereo not drawn) [Example 108, 1-(3-(difluoromethyl)-4-fluorophenyl)-3-(trifluoromethyl)-4,5,6,7-tetrahydro-1H-indol-4-ol]",–,≤ 500,–,–,–
"CS(=O)(=O)c1nn(Cc2ccc(F)cc2)c2c1C(=O)CCC2 [Example 93, 1-(4-fluorobenzyl)-3-(methylsulfonyl)-1,5,6,7-tetrahydro-4H-indazol-4-one]",–,> 1500,–,–,–
